Molecules are shown by their SMILES.

This test concerns the target T1, Nav1.7 (or SCN9A) channel; HEK cells stably transfected with hSCN9A (Homo sapiens, UniProt Q15858).
T1 construct: expressed in transfected cells
Briefly: Nav1.7 block, PatchXpress 7000 automated whole-cell voltage clamp, estimated IC50 (EIC50). The format is cell-based. The following applies: estimated IC50; hSCN9A HEK cells, PatchXpress platform; Examples 815-1040.

T1 sequence (Q15858 whole entry): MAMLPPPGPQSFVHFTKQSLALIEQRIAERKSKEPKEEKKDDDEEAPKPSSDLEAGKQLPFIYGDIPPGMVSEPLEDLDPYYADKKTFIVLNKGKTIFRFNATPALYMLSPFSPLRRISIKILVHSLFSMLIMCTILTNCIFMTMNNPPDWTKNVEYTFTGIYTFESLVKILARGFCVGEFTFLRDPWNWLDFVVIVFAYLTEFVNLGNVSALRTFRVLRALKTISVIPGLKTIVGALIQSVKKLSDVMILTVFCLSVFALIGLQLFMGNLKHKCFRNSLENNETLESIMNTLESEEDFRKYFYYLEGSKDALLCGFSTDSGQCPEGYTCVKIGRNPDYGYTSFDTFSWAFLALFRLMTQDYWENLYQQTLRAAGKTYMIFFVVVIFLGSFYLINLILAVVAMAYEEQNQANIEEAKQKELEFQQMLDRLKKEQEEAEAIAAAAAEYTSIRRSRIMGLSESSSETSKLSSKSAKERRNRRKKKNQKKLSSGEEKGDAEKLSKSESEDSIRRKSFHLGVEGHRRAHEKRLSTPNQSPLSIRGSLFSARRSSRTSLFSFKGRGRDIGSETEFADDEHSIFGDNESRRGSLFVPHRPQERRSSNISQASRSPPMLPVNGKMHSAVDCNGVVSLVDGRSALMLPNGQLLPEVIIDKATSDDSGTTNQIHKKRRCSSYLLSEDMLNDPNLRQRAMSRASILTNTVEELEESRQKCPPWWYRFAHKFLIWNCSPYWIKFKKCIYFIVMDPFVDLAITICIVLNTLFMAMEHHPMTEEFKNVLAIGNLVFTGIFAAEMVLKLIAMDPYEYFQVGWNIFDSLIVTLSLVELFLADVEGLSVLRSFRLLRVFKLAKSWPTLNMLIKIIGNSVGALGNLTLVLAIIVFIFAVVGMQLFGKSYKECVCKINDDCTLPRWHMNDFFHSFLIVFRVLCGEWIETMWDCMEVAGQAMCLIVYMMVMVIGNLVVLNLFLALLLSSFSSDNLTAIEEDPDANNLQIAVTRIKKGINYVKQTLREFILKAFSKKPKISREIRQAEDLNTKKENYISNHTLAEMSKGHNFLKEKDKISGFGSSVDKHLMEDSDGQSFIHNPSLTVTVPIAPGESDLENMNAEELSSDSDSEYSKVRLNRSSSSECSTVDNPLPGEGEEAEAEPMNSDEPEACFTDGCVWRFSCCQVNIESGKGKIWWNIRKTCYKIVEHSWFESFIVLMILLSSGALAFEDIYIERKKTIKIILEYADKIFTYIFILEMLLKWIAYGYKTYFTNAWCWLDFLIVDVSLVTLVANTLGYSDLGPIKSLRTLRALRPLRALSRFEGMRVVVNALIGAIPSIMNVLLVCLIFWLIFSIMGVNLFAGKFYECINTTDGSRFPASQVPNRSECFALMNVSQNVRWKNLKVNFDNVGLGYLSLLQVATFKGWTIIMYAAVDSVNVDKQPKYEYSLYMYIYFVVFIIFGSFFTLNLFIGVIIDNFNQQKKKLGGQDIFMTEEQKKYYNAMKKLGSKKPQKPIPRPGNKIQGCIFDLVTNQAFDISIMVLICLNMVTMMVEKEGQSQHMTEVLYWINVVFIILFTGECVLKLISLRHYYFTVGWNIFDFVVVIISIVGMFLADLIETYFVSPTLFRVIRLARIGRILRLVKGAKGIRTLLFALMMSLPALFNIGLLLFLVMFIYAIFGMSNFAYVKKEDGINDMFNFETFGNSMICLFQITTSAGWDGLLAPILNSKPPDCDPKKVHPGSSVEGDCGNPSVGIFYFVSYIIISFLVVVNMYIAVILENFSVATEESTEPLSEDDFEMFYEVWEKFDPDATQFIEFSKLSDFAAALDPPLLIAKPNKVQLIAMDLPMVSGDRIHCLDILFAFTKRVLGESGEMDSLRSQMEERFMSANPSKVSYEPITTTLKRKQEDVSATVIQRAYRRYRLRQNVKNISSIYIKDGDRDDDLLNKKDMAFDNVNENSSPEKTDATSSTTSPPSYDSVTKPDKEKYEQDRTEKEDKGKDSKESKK

Consider `CN(C)c1n[nH]cc1-c1cc(Cl)ccc1Oc1cc(F)c(S(=O)(=O)Nc2nncs2)cc1Cl` [Example 870, 5-chloro-4-{4-chloro-2-[3-(dimethylamino)-1H-pyrazol-4-yl]phenoxy}-2-fluoro-N-1,3,4-thiadiazol-2-ylbenzenesulfonamide], for which the concentration for half-maximal inhibition (IC50) is 140 nM. As for `Cc1nsc(NS(=O)(=O)c2cc(Cl)c(Oc3ccc(C(F)(F)F)cc3-c3ccnnc3)cc2F)n1` [Example 871, 5-chloro-2-fluoro-N-(3-methyl-1,2,4-thiadiazol-5-yl)-4-[2-pyridazin-4-yl-4-(trifluoromethyl)phenoxy]benzenesulfonamide], the figure is 25 nM. As for `Cc1nsc(NS(=O)(=O)c2cc(Cl)c(Oc3ccc(Cl)cc3-c3c[nH]nc3N)cc2F)n1` [Example 872, 4-[2-(3-amino-1H-pyrazol-4-yl)-4-chlorophenoxy]-5-chloro-2-fluoro-N-(3-methyl-1,2,4-thiadiazol-5-yl)benzenesulfonamide], the figure is 12 nM; as for `O=S(=O)(Nc1nncs1)c1cc(F)c(Oc2ccc(Cl)cc2-c2cc(N3CCOCC3)ncn2)cc1F` [Example 873, 4-[4-chloro-2-(6-morpholin-4-ylpyrimidin-4-yl)phenoxy]-2,5-difluoro-N-1,3,4-thiadiazol-2-ylbenzenesulfonamide], 3900 nM; as for `N#Cc1cc(S(=O)(=O)Nc2ncns2)ccc1Oc1ccc(Cl)cc1-c1cccc(CN2CC(F)(F)C2)n1` [Example 874, 4-(4-chloro-2-{6-[(3,3-difluoroazetidin-1-yl)methyl]pyridin-2-yl}phenoxy)-3-cyano-N-1,2,4-thiadiazol-5-ylbenzenesulfonamide], 350 nM. As for `N#Cc1cc(S(=O)(=O)Nc2ncns2)ccc1Oc1ccc(Cl)cc1-c1cc(N2CCNCC2)ncn1` [Example 875, 4-[4-chloro-2-(6-piperazin-1-ylpyrimidin-4-yl)phenoxy]-3-cyano-N-1,2,4-thiadiazol-5-ylbenzenesulfonamide], the figure is 50 nM; as for `N#Cc1cc(S(=O)(=O)Nc2nncs2)ccc1Oc1ccc(Cl)cc1-c1cc(N2CCOCC2)ncn1` [Example 876, 4-[4-chloro-2-(6-morpholin-4-ylpyrimidin-4-yl)phenoxy]-3-cyano-N-1,3,4-thiadiazol-2-ylbenzenesulfonamide], over 1000 nM. `N#Cc1cc(S(=O)(=O)Nc2ncns2)ccc1Oc1ccc(Cl)cc1-c1cc(N2CCC2)ncn1` [Example 877, 4-[2-(6-azetidin-1-ylpyrimidin-4-yl)-4-chlorophenoxy]-3-cyano-N-1,2,4-thiadiazol-5-ylbenzenesulfonamide]: the IC50 is 470 nM.

As to `N#Cc1cc(S(=O)(=O)Nc2ncns2)ccc1Oc1ccc(OC(F)(F)F)cc1-c1ccnnc1` [Example 878, 3-cyano-4-[2-pyridazin-4-yl-4-(trifluoromethoxy)phenoxy]-N-1,2,4-thiadiazol-5-ylbenzenesulfonamide], the IC50 is 5.8 nM. As to `O=S(=O)(Nc1ncns1)c1cc(F)c(Oc2ccc(Cl)cc2-c2ccnnc2)cc1F` [Example 879, 4-(4-chloro-2-pyridazin-4-ylphenoxy)-2,5-difluoro-N-1,2,4-thiadiazol-5-ylbenzenesulfonamide], the IC50 was 7 nM.

`N#Cc1cc(S(=O)(=O)Nc2ncns2)ccc1Oc1ccc(Cl)cc1-c1ccon1` [Example 880, 4-(4-chloro-2-isoxazol-3-ylphenoxy)-3-cyano-N-1,2,4-thiadiazol-5-ylbenzenesulfonamide]: the 50% inhibitory concentration (IC50) was 110 nM. As for `Cn1nccc1-c1cc(Cl)ccc1Oc1ccc(S(=O)(=O)Nc2ncccn2)cc1C#N` [Example 881, 4-[4-chloro-2-(1-methyl-1H-pyrazol-5-yl)phenoxy]-3-cyano-N-pyrimidin-2-ylbenzenesulfonamide], the figure is 260 nM; as for `N#Cc1cc(S(=O)(=O)Nc2ncns2)ccc1Oc1ccc(Cl)cc1-c1ccnn1C1CCOC1` (stereo not drawn) [Example 882, 4-{4-chloro-2-[1-(tetrahydrofuran-3-yl)-1H-pyrazol-5-yl]phenoxy}-3-cyano-N-1,2,4-thiadiazol-5-ylbenzenesulfonamide], 40 nM.

Turning to `Cc1cc(NS(=O)(=O)c2ccc(Oc3ccc(Cl)cc3-c3ccnn3C)c(C#N)c2)no1` [Example 883, 4-[4-chloro-2-(1-methyl-1H-pyrazol-5-yl)phenoxy]-3-cyano-N-(5-methylisoxazol-3-yl)benzenesulfonamide], the IC50 was 14000 nM. As for `CN1CC(n2nccc2-c2cc(Cl)ccc2Oc2cc(F)c(S(=O)(=O)Nc3nncs3)cc2Cl)C1` [Example 884, 5-chloro-4-{4-chloro-2-[1-(1-methylazetidin-3-yl)-1H-pyrazol-5-yl]phenoxy}-2-fluoro-N-1,3,4-thiadiazol-2-ylbenzenesulfonamide], the figure is 36 nM. For the compound `Cn1nccc1-c1cc(Cl)ccc1Oc1ccc(S(=O)(=O)Nc2cnccn2)cc1C#N` [Example 885, 4-[4-chloro-2-(1-methyl-1H-pyrazol-5-yl)phenoxy]-3-cyano-N-pyrazin-2-ylbenzenesulfonamide], the half-inhibitory concentration (IC50) is 6300 nM.

Consider `CCOc1nnc(NS(=O)(=O)c2ccc(Oc3ccc(Cl)cc3-c3ccnn3C)c(C#N)c2)s1` [Example 886, 4-[4-chloro-2-(1-methyl-1H-pyrazol-5-yl)phenoxy]-3-cyano-N-(5-ethoxy-1,3,4-thiadiazol-2-yl)benzenesulfonamide], for which the 50% inhibitory concentration (IC50) is 6200 nM. As for `Cn1ccc(NS(=O)(=O)c2ccc(Oc3ccc(Cl)cc3-c3ccnn3C)c(C#N)c2)n1` [Example 887, 4-[4-chloro-2-(1-methyl-1H-pyrazol-5-yl)phenoxy]-3-cyano-N-(1-methyl-1H-pyrazol-3-yl)benzenesulfonamide], the figure is 9000 nM.

Take `Cc1nnc(NS(=O)(=O)c2ccc(Oc3ccc(Cl)cc3-c3ccnn3C)c(C#N)c2)s1` [Example 888, 4-[4-chloro-2-(1-methyl-1H-pyrazol-5-yl)phenoxy]-3-cyano-N-(5-methyl-1,3,4-thiadiazol-2-yl)benzenesulfonamide]: the IC50 is 920 nM.

With `N#Cc1cc(S(=O)(=O)Nc2ncns2)ccc1Oc1ccc(F)cc1-c1cocn1` [Example 889, 3-cyano-4-[4-fluoro-2-(1,3-oxazol-4-yl)phenoxy]-N-1,2,4-thiadiazol-5-ylbenzenesulfonamide], the half-maximal inhibitory concentration (IC50) was 670 nM. As for `CSc1nnc(NS(=O)(=O)c2ccc(Oc3ccc(Cl)cc3-c3ccnn3C)c(C#N)c2)s1` [Example 891, 4-[4-chloro-2-(1-methyl-1H-pyrazol-5-yl)phenoxy]-3-cyano-N-[5-(methylthio)-1,3,4-thiadiazol-2-yl]benzenesulfonamide], the figure is 780 nM; as for `Cc1cnc(NS(=O)(=O)c2ccc(Oc3ccc(Cl)cc3-c3ccnn3C)c(C#N)c2)cn1` [Example 892, 4-[4-chloro-2-(1-methyl-1H-pyrazol-5-yl)phenoxy]-3-cyano-N-(5-methylpyrazin-2-yl)benzenesulfonamide], over 10000 nM. Consider `CSc1nc(NS(=O)(=O)c2ccc(Oc3ccc(Cl)cc3-c3ccnn3C)c(C#N)c2)ns1` [Example 893, 4-[4-chloro-2-(1-methyl-1H-pyrazol-5-yl)phenoxy]-3-cyano-N-[5-(methylthio)-1,2,4-thiadiazol-3-yl]benzenesulfonamide], for which the IC50 is 3800 nM. Regarding `Cn1nccc1NS(=O)(=O)c1ccc(Oc2ccc(Cl)cc2-c2ccnn2C)c(C#N)c1` [Example 894, 4-[4-chloro-2-(1-methyl-1H-pyrazol-5-yl)phenoxy]-3-cyano-N-(1-methyl-1H-pyrazol-5-yl)benzenesulfonamide], the IC50 was over 10000 nM.

`Cn1nccc1-c1cc(Cl)ccc1Oc1ccc(S(=O)(=O)Nc2cncnc2)cc1C#N` [Example 895, 4-[4-chloro-2-(1-methyl-1H-pyrazol-5-yl)phenoxy]-3-cyano-N-pyrimidin-5-ylbenzenesulfonamide]: the 50% inhibitory concentration (IC50) was over 30000 nM.

As for `N#Cc1cc(S(=O)(=O)Nc2ncns2)ccc1Oc1ccc(Cl)cc1-c1cc(N2CCOCC2)ncn1` [Example 896, 4-[4-chloro-2-(6-morpholin-4-ylpyrimidin-4-yl)phenoxy]-3-cyano-N-1,2,4-thiadiazol-5-ylbenzenesulfonamide], the IC50 is 340 nM. As for `O=S(=O)(Nc1ncns1)c1cc(F)c(Oc2ccc(OC(F)(F)F)cc2-c2ccnnc2)cc1F` [Example 897, 2,5-difluoro-4-[2-pyridazin-4-yl-4-(trifluoromethoxy)phenoxy]-N-1,2,4-thiadiazol-5-ylbenzenesulfonamide], the figure is 5.8 nM. As for `O=S(=O)(Nc1ncns1)c1ccc(Oc2ccc(Cl)cc2-c2ccnnc2)c(Cl)c1` [Example 898, 3-chloro-4-(4-chloro-2-pyridazin-4-ylphenoxy)-N-1,2,4-thiadiazol-5-ylbenzenesulfonamide], the figure is 5.1 nM.

On to `N#Cc1cc(S(=O)(=O)Nc2nncs2)ccc1Oc1ccc(Cl)cc1-c1ccnc(N2CCOCC2)c1` [Example 899, 4-[4-chloro-2-(2-morpholin-4-ylpyridin-4-yl)phenoxy]-3-cyano-N-1,3,4-thiadiazol-2-ylbenzenesulfonamide], for which the IC50 was 18 nM. For `O=S(=O)(Nc1ncns1)c1ccc(Oc2ccc(OC(F)(F)F)cc2-c2ccnnc2)c(Cl)c1` [Example 900, 3-chloro-4-[2-pyridazin-4-yl-4-(trifluoromethoxy)phenoxy]-N-1,2,4-thiadiazol-5-ylbenzenesulfonamide], the 50% inhibitory concentration (IC50) was 2.8 nM. As for `N#Cc1cc(S(=O)(=O)Nc2ncns2)ccc1Oc1ccc(Cl)cc1-c1ccnc(NC2CCC2)c1` [Example 902, 4-{4-chloro-2-[2-(cyclobutylamino)pyridin-4-yl]phenoxy}-3-cyano-N-1,2,4-thiadiazol-5-ylbenzenesulfonamide], the figure is 2.3 nM; as for `O=S(=O)(Nc1ncns1)c1cc(F)c(Oc2ccc(C(F)(F)F)cc2-c2ccc(Cl)nn2)cc1F` [Example 904, 4-[2-(6-chloropyridazin-3-yl)-4-(trifluoromethyl)phenoxy]-2,5-difluoro-N-1,2,4-thiadiazol-5-ylbenzenesulfonamide], 390 nM. For `N#Cc1cc(S(=O)(=O)Nc2ncns2)ccc1Oc1ccc(Cl)cc1-c1ccsn1` [Example 905, 4-(4-chloro-2-isothiazol-3-ylphenoxy)-3-cyano-N-1,2,4-thiadiazol-5-ylbenzenesulfonamide], the IC50 is 190 nM.

A word on the IC50: it is the midpoint of a concentration-inhibition curve.

The values are drawn from patent publication US8541588B2, “Sulfonamide derivatives” (Pfizer Limited, priority 2009, dated 2013).
